The source made the active and inactive calls. The calls are words filed in the database; no cut-off is given here.
Columns and labels:
Cholinesterase = Cholinesterase (Equus caballus, UniProt P81908)
Description: Inhibition of equine serum butyrylcholinesterase using butyrylthiocholine chloride as substrate incubated for 15 mins prior to substrate addition measured every 1 min by Ellman's assay

Acetylcholinesterase = Acetylcholinesterase (Electrophorus electricus, UniProt O42275)
Description: Inhibition of electric eel acetylcholine esterase using acetylcholine chloride as substrate incubated for 15 mins prior to substrate addition measured every 1 min by Ellman's assay

[1] = target: Acetylcholinesterase (Electrophorus electricus) (UniProt O42275); assay: Ratio of tacrine IC50 to compound IC50 for electric eel acetylcholine esterase
[2] = target: Acetylcholinesterase (Electrophorus electricus) (UniProt O42275); assay: Ratio of donepezil IC50 to compound IC50 for electric eel acetylcholine esterase
[3] = target: Acetylcholinesterase (Electrophorus electricus) (UniProt O42275); assay: Mixed-type inhibition of electric eel acetylcholine esterase using acetylcholine chloride as substrate at 0.001 to 0.003 uM incubated for 15 mins by Lineweaver Burk plot analysis

Chain of Cholinesterase (P81908 whole entry): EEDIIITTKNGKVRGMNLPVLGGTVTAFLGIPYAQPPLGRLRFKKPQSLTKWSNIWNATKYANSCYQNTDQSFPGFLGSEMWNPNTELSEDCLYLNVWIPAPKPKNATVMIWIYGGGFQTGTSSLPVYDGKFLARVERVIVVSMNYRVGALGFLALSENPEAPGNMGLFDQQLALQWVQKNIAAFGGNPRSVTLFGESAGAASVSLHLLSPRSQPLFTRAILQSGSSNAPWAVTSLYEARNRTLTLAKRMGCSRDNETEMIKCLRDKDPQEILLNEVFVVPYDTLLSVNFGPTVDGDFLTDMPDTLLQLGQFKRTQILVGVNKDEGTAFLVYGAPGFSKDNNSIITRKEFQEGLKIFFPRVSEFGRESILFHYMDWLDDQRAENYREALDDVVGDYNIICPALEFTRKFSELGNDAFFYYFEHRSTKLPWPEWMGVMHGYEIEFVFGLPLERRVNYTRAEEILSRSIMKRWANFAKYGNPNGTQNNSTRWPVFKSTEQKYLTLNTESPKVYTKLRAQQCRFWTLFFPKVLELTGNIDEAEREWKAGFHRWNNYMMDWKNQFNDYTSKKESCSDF
Chain of Acetylcholinesterase (Electrophorus electricus) (O42275 24-633 limits assumed): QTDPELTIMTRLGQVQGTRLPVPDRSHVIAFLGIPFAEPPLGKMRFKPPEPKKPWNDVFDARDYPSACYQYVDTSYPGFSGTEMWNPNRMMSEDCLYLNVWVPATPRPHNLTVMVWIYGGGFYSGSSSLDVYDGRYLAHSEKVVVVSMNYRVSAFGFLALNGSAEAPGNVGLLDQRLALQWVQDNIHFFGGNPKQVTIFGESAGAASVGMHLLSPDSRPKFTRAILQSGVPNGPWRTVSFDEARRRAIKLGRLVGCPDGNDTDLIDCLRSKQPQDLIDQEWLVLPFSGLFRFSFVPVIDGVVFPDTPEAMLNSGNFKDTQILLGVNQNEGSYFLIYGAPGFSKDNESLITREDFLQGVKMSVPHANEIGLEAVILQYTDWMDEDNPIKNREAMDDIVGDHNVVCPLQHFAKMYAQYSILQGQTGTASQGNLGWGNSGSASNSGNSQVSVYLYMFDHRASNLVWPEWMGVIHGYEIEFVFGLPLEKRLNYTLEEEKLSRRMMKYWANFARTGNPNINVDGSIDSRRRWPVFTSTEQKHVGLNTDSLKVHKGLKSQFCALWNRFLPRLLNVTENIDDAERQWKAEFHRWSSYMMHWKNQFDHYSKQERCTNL
Chain of Acetylcholinesterase (O42275 whole entry): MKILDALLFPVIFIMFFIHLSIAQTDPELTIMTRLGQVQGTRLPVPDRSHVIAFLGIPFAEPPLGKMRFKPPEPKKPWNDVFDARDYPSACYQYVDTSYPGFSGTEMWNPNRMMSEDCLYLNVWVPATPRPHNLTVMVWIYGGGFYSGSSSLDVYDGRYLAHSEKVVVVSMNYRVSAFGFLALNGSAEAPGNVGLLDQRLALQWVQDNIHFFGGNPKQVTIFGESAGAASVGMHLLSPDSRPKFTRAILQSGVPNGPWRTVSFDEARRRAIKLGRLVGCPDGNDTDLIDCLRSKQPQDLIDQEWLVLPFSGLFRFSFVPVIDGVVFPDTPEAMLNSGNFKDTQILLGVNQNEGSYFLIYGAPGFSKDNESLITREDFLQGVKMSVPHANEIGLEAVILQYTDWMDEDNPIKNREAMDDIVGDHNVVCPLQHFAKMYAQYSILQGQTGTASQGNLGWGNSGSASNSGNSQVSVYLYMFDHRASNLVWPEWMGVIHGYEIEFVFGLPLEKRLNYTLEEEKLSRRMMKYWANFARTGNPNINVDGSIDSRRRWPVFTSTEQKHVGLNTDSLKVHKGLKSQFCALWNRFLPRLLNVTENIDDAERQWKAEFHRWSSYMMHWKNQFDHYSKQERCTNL

Row | SMILES | IC50 (Cholinesterase) [µM] | IC50 (Acetylcholinesterase) [µM] | Ratio IC50 [1] | Ratio IC50 [2] | inhibition [3]
1 | COc1cc2c(cc1O)C(=O)CC2 | 258 | 92 |  |  | 
2 | COc1cc2c(cc1OCCCCCCn1ccnc1)C(=O)/C(=C\c1ccncc1)C2 | 18.5 | 2.87 |  |  | 
3 | COc1cc2c(cc1OCCCCCN1CCCCC1)C(=O)CC2 | 115 | 0.361 |  |  | 
4 | CCN(CC)CCCCCCOc1cc2c(cc1OC)C/C(=C/c1ccncc1)C2=O | 13.4 | 0.271 |  |  | 
5 | COc1cc2c(cc1OCCN1CCCCC1)C(=O)C(Cc1ccccc1)C2 (centres undefined) | 9.2 | 1.27 |  |  | 
6 | COc1cc2c(cc1OCCCN1CCCCC1)C(=O)/C(=C\c1ccncc1)C2 | 42.7 | 0.062 |  |  | 
7 | COc1cc2c(cc1OCCCCCCN1CCCCC1)C(=O)/C(=C\c1ccncc1)C2 | 4.47 | 0.232 |  |  | 
8 | CCN(CC)CCCCOc1cc2c(cc1OC)C/C(=C/c1ccncc1)C2=O | 28.9 | 0.205 |  |  | 
9 | COc1cc2c(cc1OCCCCN1CCCC1)C(=O)/C(=C\c1ccncc1)C2 | 17.5 | 0.156 |  |  | 
10 | COc1cc2c(cc1O)C(=O)/C(=C\c1ccncc1)C2 | 247 | 49.6 |  |  | 
11 | COc1cc2c(cc1OCCN1CCCCC1)C(=O)/C(=C\c1ccccn1)C2 | 7.48 | 0.0044 |  |  | 
12 | COc1cc2c(cc1OCCCN1CCCCC1)C(=O)CC2 | 32.9 | 0.916 |  |  | 
13 | COc1cc2c(cc1OCCN1CCCCC1)C(=O)/C(=C\c1ccncc1)C2 | 9.5 | 0.0018 | 47 | 14 | Active
14 | COc1cc2c(cc1OCCCCCN1CCCCC1)C(=O)/C(=C\c1ccncc1)C2 | 9.15 | 0.288 |  |  | 
15 | COc1cc2c(cc1OCCCCCCCCCN1CCCCC1)C(=O)/C(=C\c1ccncc1)C2 | 1.24 | 0.734 |  |  | 
16 | COc1cc2c(cc1OCCCCN1CCCCC1)C(=O)/C(=C\c1ccncc1)C2 | 13.8 | 0.081 |  |  | 
17 | COc1cc2c(cc1OCCN1CCCCC1)C(=O)CC2 | 137 | 3.11 |  |  | 
18 | COc1cc2c(cc1OCCN1CCCCC1)C(=O)/C(=C\c1ccccc1)C2 | 2.24 | 0.0091 |  |  | 

Source: ChEMBL document CHEMBL2040761, “Design, synthesis, and evaluation of indanone derivatives as acetylcholinesterase inhibitors and metal-chelating agents” (Bioorg Med Chem Lett, 2012)
